Test results as given in patent US20150374666A1, “AQUEOUS LIQUID COMPOSITION INCLUDING HIGH CONCENTRATION OF L-HISTIDINE” (AJINOMOTO CO., INC., priority 2013, published 2015).

Assay: solubility of histidine added to acidic aqueous solution, left standing at room temperature for 24 hr
Type: physicochemical
Method: Acidic substances (acetic acid, phosphoric acid, citric acid, malic acid, or tartaric acid) in the amounts indicated in Table 1 were added to and dissolved in water at 80 to 100° C. to prepare acidic aqueous solutions. Then, to the prepared acidic aqueous solutions was added histidine (HIS) in the amounts indicated in Table 1, and the mixtures were thoroughly stirred. The mixtures were left standing at room temperature for 24 hr, and the solubility of histidine was examined.
Acidic substances (citric acid, malic acid or tartaric acid) in the amounts indicated in Table 2 were added to and dissolved in water at 80 to 100° C. to prepare acidic aqueous solutions. Then, to the prepared acidic aqueous solutions was added histidine (HIS) in the amounts indicated in Table 2 to a concentration of not less than 45 wt %, and the mixtures were thoroughly stirred. The mixtures were left standing at room temperature for 24 hr, and the solubility of histidine was examined. In Table 2, “-” in the pH column means unmeasurable. In Table 2, the composition with *2 was prepared after preparation of the composition with *1, by reducing the amount of water by evaporation under reduced pressure.
Citric acid in the amount indicated in Tables 3 to 5 were added to and dissolved in water at 80 to 100° C. to prepare acidic aqueous solutions. Then, to the prepared acidic aqueous solutions was added histidine (HIS) in the amounts indicated in Tables 3 to 5, and the mixtures were thoroughly stirred. The mixtures were left standing at room temperature for 24 hr, and the solubility of histidine was examined. In Table 5, the composition with *2 was prepared after preparation of the composition with *1, by reducing the amount of water by evaporation under reduced pressure.
Acidic substances (citric acid or malic acid) in the amounts indicated in Table 6 and 7 were added to and dissolved in water at 80 to 100° C. to prepare acidic aqueous solutions. Then, to the prepared acidic aqueous solutions was added histidine in the amounts indicated in Table 6 and 7 to a concentration of 20 wt % or 30 wt %, and the mixtures were thoroughly stirred. The mixtures were left standing at room temperature for 24 hr, and the solubility of histidine was examined.

N[C@@H](Cc1c[nH]cn1)C(=O)O [HIS, histidine]
preparation of liquid composition having a histidine concentration of not less than 47.4 wt % (0.56 part by weight of citric acid or malic acid per 1 part by weight of histidine): could not be prepared
solubility (Table 1: citric acid 60 g, water 50 g, His 90 g, acidic substance/HIS 0.67 W/W, pH before His addition 0.40, HIS concentration 45.0 % (W/W) in liquid, room temperature 24 hr): ∘
solubility (Table 1: citric acid 65 g, water 50 g, His 100 g, acidic substance/HIS 0.65 W/W, pH before His addition 0.30, HIS concentration 46.5 % (W/W) in liquid, room temperature 24 hr): ∘
solubility (Table 1: citric acid 80 g, water 50 g, His 120 g, acidic substance/HIS 0.67 W/W, pH before His addition 0.10, HIS concentration 48.0 % (W/W) in liquid, room temperature 24 hr): ∘
solubility (Table 1: malic acid 60 g, water 50 g, His 90 g, acidic substance/HIS 0.67 W/W, pH before His addition 0.40, HIS concentration 45.0 % (W/W) in liquid, room temperature 24 hr): ∘
solubility (Table 1: tartaric acid 60 g, water 50 g, His 90 g, acidic substance/HIS 0.67 W/W, pH before His addition 0.20, HIS concentration 45.0 % (W/W) in liquid, room temperature 24 hr): ∘
solubility (Table 2 (*1): citric acid 60 g, water 50 g, His 90 g, acidic substance/HIS 0.67 W/W, pH before His addition 0.40, HIS concentration 45.0 % (W/W) in liquid, room temperature 24 hr): ∘
solubility (Table 2 (*2, water reduced by evaporation under reduced pressure from *1): citric acid 60 g, water 10 g, His 90 g, acidic substance/HIS 0.67 W/W, HIS concentration 56.3 % (W/W) in liquid): ∘
solubility (Table 2 (*2, water reduced by evaporation under reduced pressure from *1): citric acid 60 g, water 20 g, His 90 g, acidic substance/HIS 0.67 W/W, HIS concentration 52.9 % (W/W) in liquid): ∘
solubility (Table 2: citric acid 65 g, water 50 g, His 100 g, acidic substance/HIS 0.65 W/W, pH before His addition 0.30, HIS concentration 46.5 % (W/W) in liquid, room temperature 24 hr): ∘
solubility (Table 2: citric acid 80 g, water 50 g, His 120 g, acidic substance/HIS 0.67 W/W, pH before His addition 0.10, HIS concentration 48.0 % (W/W) in liquid, room temperature 24 hr): ∘
solubility (Table 2: citric acid 120 g, water 50 g, His 180 g, acidic substance/HIS 0.67 W/W, HIS concentration 51.4 % (W/W) in liquid, room temperature 24 hr): ∘
solubility (Table 2: malic acid 60 g, water 50 g, His 90 g, acidic substance/HIS 0.67 W/W, pH before His addition 0.40, HIS concentration 45.0 % (W/W) in liquid, room temperature 24 hr): ∘
solubility (Table 2: malic acid 70 g, water 50 g, His 100 g, acidic substance/HIS 0.70 W/W, HIS concentration 45.5 % (W/W) in liquid, room temperature 24 hr): ∘
solubility (Table 2: tartaric acid 60 g, water 50 g, His 90 g, acidic substance/HIS 0.67 W/W, pH before His addition 0.20, HIS concentration 45.0 % (W/W) in liquid, room temperature 24 hr): ∘
solubility (Table 2: tartaric acid 60 g, water 50 g, His 100 g, acidic substance/HIS 0.60 W/W, pH before His addition 0.20, HIS concentration 47.6 % (W/W) in liquid, room temperature 24 hr): ∘
solubility of histidine (Table 3: amount of histidine added to acidic aqueous solution (water 50 g, citric acid 60 g) reduced): fine
solubility (Table 3: citric acid 60 g, water 50 g, His 30 g, acidic substance/HIS 2.00 W/W, HIS concentration 21.4 % (W/W) in liquid, room temperature 24 hr): ◯
solubility (Table 3: citric acid 60 g, water 50 g, His 50 g, acidic substance/HIS 1.20 W/W, HIS concentration 31.3 % (W/W) in liquid, room temperature 24 hr): ◯
solubility (Table 3: citric acid 60 g, water 50 g, His 70 g, acidic substance/HIS 0.86 W/W, HIS concentration 38.9 % (W/W) in liquid, room temperature 24 hr): ◯
solubility (Table 3: citric acid 60 g, water 50 g, His 90 g, acidic substance/HIS 0.67 W/W, HIS concentration 45.0 % (W/W) in liquid, room temperature 24 hr): ◯
solubility (Table 4: citric acid 20.0 g, water 50 g, His 30 g, acidic substance/HIS 0.67 W/W, HIS concentration 30.0 % (W/W) in liquid, room temperature 24 hr): ◯
solubility (Table 4: citric acid 33.3 g, water 50 g, His 50 g, acidic substance/HIS 0.67 W/W, HIS concentration 37.5 % (W/W) in liquid, room temperature 24 hr): ◯
solubility (Table 4: citric acid 46.7 g, water 50 g, His 70 g, acidic substance/HIS 0.67 W/W, HIS concentration 42.0 % (W/W) in liquid, room temperature 24 hr): ◯
solubility (Table 4: citric acid 60 g, water 50 g, His 90 g, acidic substance/HIS 0.67 W/W, HIS concentration 45.0 % (W/W) in liquid, room temperature 24 hr): ◯
solubility of histidine (Table 4: histidine and acidic substance reduced at constant ratio, acidic substance/HIS=0.67 (w/w)): fine
solubility (Table 5 (*1): citric acid 60 g, water 27.8 g, His 50 g, acidic substance/HIS 1.20 W/W, HIS concentration 36.3 % (W/W) in liquid, HIS content 180 % (W/W) to water, room temperature 24 hr): ◯
solubility (Table 5 (*2): citric acid 60 g, water 16.7 g, His 30 g, acidic substance/HIS 2.00 W/W, HIS concentration 28.1 % (W/W) in liquid, HIS content 180 % (W/W) to water): ◯
solubility (Table 5: citric acid 60 g, water 38.9 g, His 70 g, acidic substance/HIS 0.86 W/W, HIS concentration 41.4 % (W/W) in liquid, HIS content 180 % (W/W) to water, room temperature 24 hr): ◯
solubility (Table 5: citric acid 60 g, water 50 g, His 90 g, acidic substance/HIS 0.67 W/W, HIS concentration 45.0 % (W/W) in liquid, HIS content 180 % (W/W) to water, room temperature 24 hr): ◯
solubility of histidine (Table 5: histidine and water reduced at constant ratio, histidine content to water=180% (w/w)): fine
solubility (Table 6: citric acid 2.7 g, water 37.3 g, His 10 g, acidic substance/HIS 0.27 W/W, HIS concentration 20.0 % (W/W) in liquid, room temperature 24 hr): ∘
solubility (Table 6: citric acid 3.7 g, water 36.3 g, His 10 g, acidic substance/HIS 0.37 W/W, HIS concentration 20.0 % (W/W) in liquid, room temperature 24 hr): ∘
solubility (Table 6: citric acid 4.7 g, water 35.3 g, His 10 g, acidic substance/HIS 0.47 W/W, HIS concentration 20.0 % (W/W) in liquid, room temperature 24 hr): ∘
solubility (Table 6: citric acid 5.7 g, water 34.3 g, His 10 g, acidic substance/HIS 0.57 W/W, HIS concentration 20.0 % (W/W) in liquid, room temperature 24 hr): ∘
solubility (Table 6: citric acid 6.7 g, water 33.3 g, His 10 g, acidic substance/HIS 0.67 W/W, HIS concentration 20.0 % (W/W) in liquid, room temperature 24 hr): ∘
solubility (Table 6: malic acid 2.7 g, water 37.3 g, His 10 g, acidic substance/HIS 0.27 W/W, HIS concentration 20.0 % (W/W) in liquid, room temperature 24 hr): ∘
solubility (Table 7: citric acid 6.0 g, water 29.0 g, His 15 g, acidic substance/HIS 0.40 W/W, HIS concentration 30.0 % (W/W) in liquid, room temperature 24 hr): ∘
solubility (Table 7: citric acid 7.0 g, water 28.0 g, His 15 g, acidic substance/HIS 0.47 W/W, HIS concentration 30.0 % (W/W) in liquid, room temperature 24 hr): ∘
solubility (Table 7: citric acid 8.0 g, water 27.0 g, His 15 g, acidic substance/HIS 0.53 W/W, HIS concentration 30.0 % (W/W) in liquid, room temperature 24 hr): ∘
solubility (Table 7: citric acid 9.0 g, water 26.0 g, His 15 g, acidic substance/HIS 0.60 W/W, HIS concentration 30.0 % (W/W) in liquid, room temperature 24 hr): ∘
solubility (Table 7: citric acid 10.0 g, water 25.0 g, His 15 g, acidic substance/HIS 0.67 W/W, HIS concentration 30.0 % (W/W) in liquid, room temperature 24 hr): ∘
solubility (Table 7: malic acid 6.0 g, water 29.0 g, His 15 g, acidic substance/HIS 0.40 W/W, HIS concentration 30.0 % (W/W) in liquid, room temperature 24 hr): ∘
solubility of histidine (acetic acid or phosphoric acid as acidic substance, acidic aqueous solution pH of not more than 1.0, room temperature 24 hr): not dissolved or, even when dissolved, precipitated
solubility of histidine (citric acid, malic acid or tartaric acid as acidic substance, pH of not more than 1.0, amount corresponding to concentration of not less than 45 wt %): finely dissolved
solubility of histidine (histidine 20 wt %, 0.17 part by weight of acidic substance per 1 part by weight of histidine): not dissolved
solubility of histidine (histidine 20 wt %, not less than 0.27 part by weight of acidic substance per 1 part by weight of histidine): fine
solubility of histidine (histidine 30 wt %, 0.33 part by weight of acidic substance per 1 part by weight of histidine): not dissolved
solubility of histidine (histidine 30 wt %, not less than 0.40 part by weight of acidic substance per 1 part by weight of histidine): fine
histidine concentration of liquid composition that could be prepared (not less than 0.65 part by weight of citric acid, not less than 0.67 of malic acid, or not less than 0.60 of tartaric acid per 1 part by weight of histidine): not less than 45 wt %
